This is an account of results in US12226458B2, “System for providing an up-to-date and long-acting or ultra-long-acting insulin dose guidance recommendation to treat diabetes mellitus” (Novo Nordisk A/S, priority 2018, dated 2025).

The test system of data set [1] is insulin-naïve subjects with type 2 diabetes. The settings on record: in vivo.
Excerpt: This was a multinational (conducted in the US, Spain, Finland, and Germany), Phase 3b, multi-center, two-armed, parallel group, open-label, randomized, treat-to-target study that compared the efficacy and safety of IDeg OD [IDeg 100 U/mL, FlexTouch® pen, Novo Nordisk A/S, Bagsværd, Denmark], adjusted using two different titration algorithms in combination with metformin. The trial consisted of a 26-week period; total study duration was approximately 28 weeks (including 1 week for screening and a 7-day follow-up period). […]
Adverse events (AEs) and hypoglycemic episodes were documented throughout the study, with confirmed hypoglycemia defined as episodes of severe hypoglycemia (requiring assistance from another person) and episodes with PG value <3.1 mmol/L (56 mg/dL). […] Laboratory safety variables, insulin dose and body weight were recorded at pre-specified intervals.
Change from baseline in HbA1c after 26 weeks was analyzed using an analysis of variance (ANOVA) method with treatment, region, sex and antidiabetic therapy at screening as fixed factors, and age and baseline HbA1c as covariates. […] Change in FPG and change in body weight were analyzed using an ANOVA model similar to that used for the primary analysis, but with the relevant baseline value as covariate for each measure. […]
Data set [2] has as its system people with Type 2 diabetes. The settings on record: in vivo; cited from earlier work.
For data set [3], the system named is insulin-naïve subjects with type 2 diabetes. The data set is described as follows: BEGIN ONCE SIMPLE USE trial: adverse events. The settings on record: IDegStep-wise arm; 154 days after starting trial drug, liver metastasis, considered unlikely related to treatment.
Excerpt: (§3) This was a multinational (conducted in the US, Spain, Finland, and Germany), Phase 3b, multi-center, two-armed, parallel group, open-label, randomized, treat-to-target study that compared the efficacy and safety of IDeg OD [IDeg 100 U/mL, FlexTouch® pen, Novo Nordisk A/S, Bagsværd, Denmark], adjusted using two different titration algorithms in combination with metformin. The trial consisted of a 26-week period; total study duration was approximately 28 weeks (including 1 week for screening and a 7-day follow-up period). After discontinuing all OADs other than metformin, subjects were randomized 1:1 by an interactive voice/web response system (IV/WRS) to IDegSimple or IDegStep-wise insulin self-titration algorithms, as defined below. Subjects were instructed to self-titrate in accordance with their respective algorithms and continue with their pre-trial metformin dose. At randomization, Week 4 and Week 12, subjects in both treatment arms received diet and exercise counselling by an HCP.
(§4) Adverse events (AEs) and hypoglycemic episodes were documented throughout the study, with confirmed hypoglycemia defined as episodes of severe hypoglycemia (requiring assistance from another person) and episodes with PG value <3.1 mmol/L (56 mg/dL). Nocturnal confirmed hypoglycemic episodes were those occurring between 00:01 h and 05:59 h (inclusive). Laboratory safety variables, insulin dose and body weight were recorded at pre-specified intervals.
(§5) Treatment-emergent AEs, hypoglycaemic episodes, laboratory parameters, physical examination, electrocardiogram (ECG), fundoscopy/fundusphotography, vital signs, PRO (Device-Specific questionnaires I and II) and insulin dose were summarized with descriptive statistics.
(§6) Treatment-emergent events occurring after first exposure and no later than 7 days after last exposure. Safety analysis set. n number of patients with events, % proportion of patients with events, E number of events, R number of events per 100 patient-years.
For data set [4] the test system is unchanged. The settings on record: in vivo. The source holds these as a separate data set.
Excerpt: as §3, §4, §5, §6
For data set [5] the test system is unchanged. The experiment in a line: BEGIN ONCE SIMPLE USE 26-week randomized treat-to-target trial: HbA1c / glycemic control. Type of data set: in vivo, human. The settings on record: for HbA1c change from baseline to Week 26 / HbA1c at Week 26: IDeg OD + metformin; for Patients achieving HbA1c<7% without confirmed hypoglycemia / Subjects achieving HbA1c<7.0% at end-of-trial: 26 weeks. From the text:
(§1) This 26-week, multi-center, open-label, randomized, treat-to-target study compared the efficacy and safety of IDeg administered once daily in combination with metformin in insulin-naïve subjects with type 2 diabetes using two different patient-driven titration algorithms: a “Simple” algorithm (IDegSimple), with dose adjustments based on one pre-breakfast SMBG measurement (N=111) versus a “Step-wise” algorithm (IDegStep-wise), with adjustments based on three consecutive pre-breakfast SMBG values (N=111). IDeg was administered using the FlexTouch® insulin pen (Novo Nordisk A/S, Bagsværd, Denmark), with once-weekly dose titration in both groups.
The study was conducted according to the Declaration of Helsinki (2008) and ICH Good Clinical Practice (1996) guidelines, with prior approval by appropriate ethics committees and patient consent obtained in writing prior to the start of any study-related activities. Eligible participants included insulin-naïve men or women ≥18 years of age, with type 2 diabetes, HbA1c 7.0-10.0% (inclusive), and body mass index (BMI) ≤45.0 kg/m^2, who were treated with ≥1000 mg/day metformin alone or in combination with one or two other oral antidiabetic medications (OADs) (including a sulfonylurea [SU] or glinide, dipeptidyl peptidase-4 [DPP-4] inhibitors, α-glucosidase inhibitors or thiazolidinediones [TZDs]), with unchanged dosing for ≥12 weeks prior to randomization. […] Subjects could be withdrawn from the trial due to withdrawal of consent, not fulfilling inclusion/exclusion criteria (randomized in error), non-compliance, or at the discretion of the investigator due to a safety concern. Subjects who were withdrawn after randomization were not to be replaced. This trial is registered at clinicaltrials.gov: NCT01326026.
(§2) HbA1c was analyzed using a Bio-Rad high-performance liquid chromatography method at Visits 1 (screening), 2 (randomization), 14 (Week 12) and 28 (Week 26). Fasting plasma glucose (FPG) blood samples were assayed using a hexokinase-UV method at Visits 2, 14 and 28. At the first visit, subjects were provided with a glucose meter for SMBG measurement and instructions for use; blood glucose was measured with test strips calibrated to plasma glucose to obtain PG-equivalent values presented in this report. Subjects performed SMBG measurements before breakfast weekly after randomization and also performed an 8-point SMBG profile prior to Visits 2, 14 and 28.

For data set [6] the test system is unchanged. The experiment in a line: BEGIN ONCE SIMPLE USE trial: fasting plasma glucose (hexokinase-UV). Type of data set: in vivo, human.
Excerpt: as §1, §2

In data set [7] the test system is patients with type 2 diabetes. Conditions: self-adjusted dose every 3 days from mean of previous 3 days' SMBG; 6 months; cited from earlier work.
For data set [8], the system named is people with Type 2 diabetes. The settings on record: INSIGHT; initial dose 10 units, increased by 1 unit each day until FPG ≤5.5 mmol/liter; cited from earlier work.

Regarding “LysB29(Nε-hexadecandioyl-γ-Glu) des(B30) human insulin [IDeg]”, the Severe hypoglycemic episodes result in data set [1] is recorded as “One”. The “Confirmed and nocturnal confirmed hypoglycemia rates with IDeg OD versus comparator insulin glargine” value in data set [2] is reported as “lower than or similar to”. Moreover, the Deaths entry in data set [3] is “One”. In addition, in data set [4], the “Headache: N number of patients with events” value is recorded as 8, the SAE neoplasm event entry is “astrocytoma”, the “SAEs: E number of events” value is recorded as 8 and the “SAEs: R number of events per 100 patient-years” value was 15 events per 100 patient-years. Also, the “HbA1c change from baseline to Week 26” value in data set [5] (IDegSimple arm (Simple titration algorithm)) is −1.09%. Besides, in data set [5] (IDegSimple arm), the “Patients achieving HbA1c<7% without confirmed hypoglycemia” value stood at 40.6%, the “Subjects achieving HbA1c<7.0% at end-of-trial” value is 56.8% and the “HbA1c at Week 26” value is given as 7.0%. In data set [5] (IDegStep-wise arm (Step-wise titration algorithm)), the “HbA1c change from baseline to Week 26” value is reported as −0.93%. In addition, in data set [5] (IDegStep-wise arm), the “Patients achieving HbA1c<7% without confirmed hypoglycemia” value was found to be 34.6%, the “Subjects achieving HbA1c<7.0% at end-of-trial” value stood at 41.4% and the “HbA1c at Week 26” value was 7.2%. Moreover, in data set [5] (Week 26, 95% CI [−0.39, 0.07]), the “Estimated treatment difference (IDegSimple−IDegStep-wise) in HbA1c change” value is given as −0.16 %-points. For the same substance, the “Non-inferiority of IDegSimple to IDegStep-wise in lowering HbA1c” value in data set [5] (Week 26, non-inferiority limit 0.4%) was “non-inferior”. Besides, the “Fasting plasma glucose at Week 26” value in data set [6] (IDegSimple arm) stood at 6.1 mmol/L. Besides, the “Fasting plasma glucose at Week 26” value in data set [6] (IDegStep-wise arm) is listed as 6.8 mmol/L. For the same substance, the “Estimated treatment difference (IDegSimple−IDegStep-wise) in FPG” value in data set [6] (Week 26, 95% CI [−1.30, 0.17]) was -0.57 mmol/L.
For insulin detemir, the “HbA1c versus standard-of-care, physician-driven adjustments” value in data set [7] is reported as “significantly lower HbA1c”.
For insulin glargine, the “End HbA1c” value in data set [8] was 7.0%.
